Format in all cases: cell-based
Data set [1] is described as follows: Assay 1 intramacrophage Leishmania donovani assay, THP-1 cell count (cytotoxicity readout). As to conditions: human, minimum threshold 4.3, read-out: cytotoxicity against THP-1 cells, pEC50 value (converted). Put shortly:
(§1)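 THP-1 cells were differentiated with 20 nM PMA for 75 h, infected with amastigotes at MOI 5 for 16 h, then exposed to compound for 96 h in a ten-point 1:3 series from a 50 μM top concentration. Cells were fixed, DAPI/CellMask-stained and imaged by high-content microscopy. pEC50 was derived from amastigotes per cell and from THP-1 count.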

Data set [2] is described as follows: Assay 6 Trypanosoma cruzi intracellular assay, cytotoxicity against H9c2 cells. The settings on record: rat, H9C2 cardiomyocytes infected with T. cruzi trypomastigotes, total number of H9C2 cells, minimum threshold 4.3, read-out: cytotoxicity against H9c2 cells, pEC50 (converted). As for the experimental part: Compounds were dispensed into black 384-well assay plates (Greiner) by acoustic dispensing (LabCyte ECHO). For potency determinations, eleven-point, one in three dilution curves were generated, with a top concentration of 50 μM. H9C2 rat cardiomyocytes cells were dispensed in T225 tissue culture flasks and after 4 hours they were infected during 18 hours with T. cruzi trypomastigotes in the same T225 tissue culture flasks at a multiplicity of infection of 1. Next, any remaining free trypomastigotes were washed away with PBS and the infected H9C2 cells were harvested by trypsinisation. The infected H9C2 cells were then plated into 384-well plates containing the compounds to be tested, at 2500 cells per well in DMEM media with 2% FBS, 1% Penicillin/Streptomocin, 2 mM L-Glutamine, 1 mM Na Pyruvate and 25 mM HEPES. After 72 h incubation at 37° C. in presence of 5% CO2, the plates were fixed and stained with 4% formaldehyde and 2 μM Draq5 for 3 hours at room temperature. The plates were imaged on a Perkin Elmer Opera high-content imaging system using a 20× air objective. Images were analysed using the Acapella building blocks system (Perkin Elmer). The image analysis algorithm first identified the H9C2 nuclei followed by demarcation of the cytoplasm and identification of intracellular amastigotes. This algorithm reported mean number of parasites per H9C2 cell, the percentage of infected H9C2 cells and the total number of H9C2 cells.

The subject of data set [3] is Leishmania donovani. The data set is described as follows: Assay 1 intramacrophage Leishmania donovani assay (potency readout). As to conditions: amastigotes in PMA-treated THP-1 macrophages, 96 h, average number of amastigotes per cell, minimum threshold 4.3, read-out: pEC50 value against Leishmania donovani (converted). Put shortly:
as §1

Data set [4] relates to Trypanosoma brucei. Briefly: Assay 3 Trypanosoma brucei cell growth inhibition assay. As to conditions: T. b. brucei BSF427, 69 h + 4 h resazurin, maximum threshold 8.0, read-out: pEC50 value against Trypanosoma brucei (converted). As to the method: Measurement of the ability of the compounds to inhibit trypanosome (T. b. brucei, BSF427, VSG118) cell growth was performed using a modification of the cell viability assay previously described by Raz et al. (Raz B.; Iten M.; Grether-Buhler Y.; Kaminski R.; Brun R. The Alamar Blue assay to determine drug sensitivity of African trypanosomes (T. b. rhodesiense and T. b. gambiense) in vitro. Acta Trop. 1997, 68, 139-147). Compounds were dissolved in DMSO at a top concentration of 10 mM and serially diluted in half log steps to achieve a range of final assay concentrations of 50 μM to 0.5 nM. Compound at each concentration (200-fold final) was added to clear 96-well tissue culture plates in a volume of 1 μL. Then 2000 cells per well in relevant growth medium (HMI-9T for T. brucei, a modification of HMI-9 as described by Hurumi et al. (Hirumi H.; Hirumi K. Continuous cultivation of Trypanosoma brucei blood stream forms in a medium containing a low concentration of serum-protein without feeder cell-layers. J. Parasitol. 1989, 75, 985-989.) where 0.2 mM 2-mercaptoethanol was replaced with 0.056 mM thiolglycerol, and MEM with 10% FBS for MRC5) were then added to columns 1-11 of the plates in a volume of 199 μL. To column 12, 200 μL of medium was added to provide a no cells control. Plates were then incubated at 37° C. in an atmosphere of 5% CO2 for 69 h, before the addition of 20 μL of 500 μM rezasurin solution, and a further incubation period of 4 h. Plates were then read on a BioTek flx800 fluorescent plate reader, and percentage inhibition was compared to the maximum and minimum assay controls. Concentration effect curves were fitted using nonlinear regression using XLFit 4.2 and EC50 values determined.
(The colour change of resazurin is a common sign of viable cells or microbes.)

Some results are limits rather than exact numbers.

As for `O=C(Nc1ccc(F)c(-c2cn3nc(N4CCOCC4)cnc3n2)c1)N1CCCC1` [Example 1, N-(4-fluoro-3-(2-morpholinoimidazo[1,2-b][1,2,4]triazin-6-yl)phenyl)pyrrolidine-1-carboxamide], the EC50 at 96 h in data set [1] was above 50100 nM. For the same compound, in data set [2], the EC50 at 72 h is above 50100 nM. Besides, the EC50 in data set [3] is 631 nM; in data set [4], below 10 nM.

The values are drawn from patent US10065965B2, “Imidazo[1,2-B][1,2,4]triazine derivatives as antiparasitic agents” (GlaxoSmithKline Intellectual Property Development Limited, priority 2015, dated 2018).
